Patent US20200222418A1, “USE OF PHENOTHIAZINE DERIVATIVE IN THE TREATMENT OF INFECTION CAUSED BY BACTERIA CARRYING TYPE IV PILI” (priority 2017, published 2020)

Assays:
[1] = system: HDMECs infected with N. meningitidis Nm2C4.3; test: Basement membrane (Gelatin-FITC matrix) degradation by infected endothelial cells; assay type: cell-based, human; settings: 150 μg/ml Gentamicin, 24 h post-infection
Experimental: (A) Experimental procedure: HBMECs grown on a fluorescent matrix (Gelatin-Fitc) were colonized by N. meningitidis for 6 h. They were then treated with 150 μg/ml gentamicin for 1 h, then 15 min with Trifluoperazine (50 μM) (or solvent alone as control) and incubated for further 15 h in the presence of 150 μg/ml gentamicin. (B) Fluorescence microscopy was used to visualize cells stained with labelled phalloidin and the fluorescent matrix. The presence of dark zones corresponds to zones of matrix degradation. (C) Quantification of the percentage of matrix degradation, using Image J software.
Plastic coverslips (13 mm diameter) (Nalgen #174950) were washed in ethanol 70%, dried then coated with poly-L-lysine 1 mg/ml for 20 min at room temperature. After one wash in sterile PBS, 0.5% Glutaraldehyde was added for 15 min at room temperature. After three washes in PBS, Gelatin-FITC (0.2 mg/ml Invitrogen #G13187) was added for 10 minutes at room temperature in the dark. Coverslip were then washed with sterile PBS and treated with 5 mg/ml sodium borohydride for 3 min. After three washes in sterile PBS, 10^5 HDMECs (PromoCell #C-12210) were seeded per well in their PromoCell culture medium and incubated overnight at 37° C. 5% CO2. The day after, cells were infected with N. meningitidis Nm2C4.3, as above described. […] Quantifications were performed using ImageJ software (NIH).

[2] = system: Enteropathogenic Escherichia coli (EPEC ΔescN-GFP) microcolonies on HBMEC; test: Dispersion of EPEC microcolonies on HBMEC; assay type: cell-based; settings: 10 to 50 μM, 30 min
Experimental: Human […] microvascular endothelial cells (HBMEC) were infected with a GFP-expressing mutant Enteropathogenic Escherichia coli, which lacks the ATPase escN (EPEC ΔescN-GFP) for 2 h, then treated with Trifluoperazine (10-50 μM) for 30 minutes, before fixation and immunofluorescence analysis using Alexa Fluor 633 Phalloidin. (A) Representative fluorescence microscopy showing bacterial colony (white dots) formed at the surface of the endothelial cells. (B) Quantification of the bacterial colonization was performed using Image J software.
HBMEC were grown on Thermanox coverslips coated with gelatin 2% for 2 days to reach confluency. Cells were then infected for 1 h with a GFP-expressing mutant Enteropathogenic Escherichia coli (EPEC), which lacks the ATPase escN. This strain is unable to translocate effector proteins and is more prone to form pilus-dependent microcolony at the host cell surface (Jensen et al., 2015). Cells were then washed three times with medium to remove non-adherent bacteria and infection was pursued for 1 extra hour, to allow bacterial growth at the endothelial cell surface to form microcolonies. Trifluoperazine was then added to obtain final concentrations of 10, 20, 30 and 50 μM. After incubation for 30 minutes, cells were washed and fixed in 4% Paraformaldehyde for 10 min, washed three times with PBS. […] Quantification was done with ImageJ software (NIH). […]

[3] = system: Nm2C4.3 microcolonies on HCMEC/D3 human brain endothelial cell line; test: Dispersion of meningococcal microcolonies on human brain endothelial cells; assay type: cell-based, Neisseria meningitidis; settings: 10-40 μM, 30 min
Experimental: A. HBMEC were infected with Nm2C4.3 for 1 h 30, treated with Trifluoperazine (10-40 μM) for 30 minutes, before fixation and immunofluorescence analysis using anti-Nm2C4.3 antibody and Alexa Fluor 633 Phalloidin. B. Quantification of the bacterial colonization was performed using Image J software.
HCMEC/D3, a well-established human brain endothelial cell line (Weksler et al, 2013) was grown in EBM-2 basal medium (Lonza, Walkersville, Md., USA) supplemented with 5% Fetal Bovine Serum “Gold”, 10 mM HEPES (PM Laboratories GmbH, Pasching, Austria), 1% Penicillin-Streptomycin, 1% chemically defined lipid concentrate (Invitrogen Ltd, Paisley, UK), 1.4 μM hydrocortisone, 5 μg·ml^−1 ascorbic acid and 1 ng·ml^−1 bFGF (Sigma-Aldrich, St. Louis, Mo.). Cells were grown on Thermanox coverslips coated with rat collagen I for 4 days at 37° C. in a humidified incubator in 5% CO2. Cells were then infected with a suspension of Nm2C4.3 (˜10^7 CFU/ml) in EBM2/FBS during 30 minutes to allow bacterial adhesion. Cells were then washed three times with medium to remove non-adherent bacteria and infection was pursued for 1 h 30: adherent bacteria grew at the endothelial cell surface and formed micro-colonies. Trifluoperazine was then added to obtain final concentrations of 10, 20, 30 and 40 μM. […] Quantification was done with ImageJ software (NIH). […]

## CN[C@@H]1[C@@H](O)C(O[C@@H]2[C@@H](O)[C@H](O[C@H]3O[C@H]([C@@H](C)NC)CC[C@H]3N)[C@@H](N)C[C@H]2N)OC[C@]1(C)O (stereo partly drawn) [Gentamicin, (3R,4R,5R)-2-{[(1S,2S,3R,4S,6R)-4,6-diamino-3-{[(2R,3R,6S)-3-amino-6-[(1R)-1-(methylamino)ethyl]oxan-2-yl]oxy}-2-hydroxycyclohexyl]oxy}-5-methyl-4-(methylamino)oxane-3,5-diol]
[1]
  degradation of the basement membrane: about 20%

## CN1CCN(CCCN2c3ccccc3Sc3ccc(C(F)(F)F)cc32)CC1 [Trifluoperazine]
[2]
  dispersion of EPEC microcolonies at the endothelial cell surface: induced the dispersion of these microbial colonies in a dose-dependent manner
[3]
  dispersion of meningococcal microcolonies at the surface of human brain endothelial cells: induced their dispersion
